Where “and” joins values, the source holds several entries; their conditions need not be identical. Equal entries are not always repeated.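 A five-concentration, 48-hour dose response in 96-well plates underlies each endpoint, interpolated linearly between surrounding concentrations. GI50: concentration for 50% inhibition of growth.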 Calls of active or inactive are those of the source. Rule as the data show it: active = GI50 up to about 1.1 µM and inactive = higher. Starred links: 1 amine or outer side, 2 acyl side, 3 side chain; linkers in the order of their positions; H or OH if unused. Positions of bridges follow the written chain, without caps; N, C: chain ends. Non-standard residues stand in square brackets, D forms with d. Residues, ends and D or L forms follow the SMILES beside them. Chains are numbered I, II in the order given. Actinocin(9to1) = Cc1c2oc3c(C)ccc(C(=O)[*:1])c3nc-2c(C(=O)[*:2])c(N)c1=O; NMeF = CN[CH](Cc1ccccc1)C(=O)O; Sar = CNCC(=O)O
Assays:
Assay in all cases: NCI tumour cell line growth inhibition, 48 h
[1] = tested on: EKVX
[2] = tested on: UACC-62
[3] = tested on: NCI/ADR-RES
[4] = tested on: SW-620
[5] = tested on: SK-MEL-5
[6] = tested on: MCF7
[7] = tested on: TK-10
[8] = tested on: HOP-62
[9] = tested on: HCT-116
[10] = tested on: IGROV-1
[11] = tested on: SK-MEL-2
[12] = tested on: SR
[13] = tested on: A549
[14] = tested on: ACHN
[15] = tested on: SN12C
[16] = tested on: OVCAR-4
[17] = tested on: PC-3
[18] = tested on: DU-145
[19] = tested on: RPMI-8226
[20] = tested on: MDA-MB-231
[21] = tested on: HT-29
[22] = tested on: RXF 393
[23] = tested on: UO-31
[24] = tested on: MDA-MB-435
[25] = tested on: A498
[26] = tested on: SNB-19
[27] = tested on: SF-295
[28] = tested on: M14
[29] = tested on: U-251
[30] = tested on: HL-60
[31] = tested on: Hs-578T
[32] = tested on: KM12
[33] = tested on: CAKI-1
[34] = tested on: Malme-3M
[35] = tested on: HOP-92
[36] = tested on: MDA-N
[37] = tested on: LOX IMVI
[38] = tested on: HCT-15
[39] = tested on: BT-549
[40] = tested on: NCI-H522
[41] = tested on: OVCAR-3
[42] = tested on: SK-MEL-28
[43] = tested on: COLO 205
[44] = tested on: 786-0
[45] = tested on: NCI-H226
[46] = tested on: NCI-H23
[47] = tested on: OVCAR-5
[48] = tested on: SF-268
[49] = tested on: OVCAR-8
[50] = tested on: K562
[51] = tested on: MOLT-4
[52] = tested on: UACC-257
[53] = tested on: NCI-H460
[54] = tested on: HCC 2998
[55] = tested on: SF-539
[56] = tested on: SNB-75
[57] = tested on: T47D
[58] = tested on: SK-OV-3
[59] = tested on: CCRF-CEM

O=C1NC(Cc2c[nH]c3ccccc23)C(=O)N2C(C3CCCCC3)c3[nH]c4ccccc4c3C[C@@H]12 (stereo not given in full)
GI50 [1]: 16 µM (inactive) | GI50 [2]: 15.3 µM (inactive) | GI50 [3]: 11.7 µM (inactive) | GI50 [4]: 15.7 µM (inactive) | GI50 [5]: 12.8 µM (inactive) | GI50 [6]: 9.08 µM (inactive) | GI50 [7]: 8.15 µM (inactive) | GI50 [8]: 18.2 µM (inactive) | GI50 [9]: 10.2 µM (inactive) | GI50 [10]: 13.8 µM (inactive) | GI50 [11]: 14.4 µM (inactive) | GI50 [12]: 7.45 µM (inactive) | GI50 [13]: 10.9 µM (inactive) | GI50 [14]: 17.7 µM (inactive) | GI50 [15]: 8.26 µM (inactive) | GI50 [16]: 11.1 µM (inactive) | GI50 [17]: 7.05 µM (inactive) | GI50 [18]: 24.3 µM (inactive) | GI50 [19]: 9.02 µM (inactive) | GI50 [20]: 15.1 µM (inactive) | GI50 [21]: 14.9 µM (inactive) | GI50 [22]: 5.98 µM (inactive) | GI50 [23]: 14.1 µM (inactive) | GI50 [24]: 11 µM (inactive) | GI50 [25]: 15.2 µM (inactive) | GI50 [26]: 22.3 µM (inactive) | GI50 [27]: 24 µM (inactive) | GI50 [28]: 13.2 µM (inactive) | GI50 [29]: 11.4 µM (inactive) | GI50 [30]: 13.4 µM (inactive) | GI50 [31]: 2.18 µM (inactive) | GI50 [32]: 11.8 µM (inactive) | GI50 [33]: 18.3 µM (inactive) | GI50 [34]: 13.1 µM (inactive) | GI50 [35]: 15.4 µM (inactive) | GI50 [36]: 11.1 µM (inactive) | GI50 [37]: 13.3 µM (inactive) | GI50 [38]: 12.4 µM | GI50 [39]: 14.9 µM (inactive) | GI50 [40]: 7.98 µM (inactive) | GI50 [41]: 2.38 µM (inactive) | GI50 [42]: 16.4 µM (inactive) | GI50 [43]: 17.2 µM (inactive) | GI50 [44]: 11.4 µM (inactive) | GI50 [45]: 24.2 µM (inactive) | GI50 [46]: 16.8 µM (inactive) | GI50 [47]: 20.7 µM (inactive) | GI50 [48]: 13.1 µM (inactive) | GI50 [49]: 14.6 µM (inactive) | GI50 [50]: 10.8 µM (inactive) | GI50 [51]: 5.97 µM (inactive) | GI50 [52]: 12.1 µM (inactive)

NC(Cc1ccc(O)cn1)C(=O)O (stereo not given)
GI50 [1]: > 100 µM (inactive) | GI50 [53]: > 100 µM (inactive) | GI50 [54]: > 100 µM (inactive) | GI50 [3]: > 100 µM (inactive) | GI50 [4]: > 100 µM (inactive) | GI50 [5]: > 100 µM (inactive) | GI50 [6]: > 100 µM (inactive) | GI50 [7]: > 100 µM (inactive) | GI50 [8]: > 100 µM (inactive) | GI50 [9]: > 100 µM (inactive) | GI50 [10]: > 100 µM (inactive) | GI50 [12]: > 100 µM (inactive) | GI50 [13]: > 100 µM (inactive) | GI50 [14]: > 100 µM (inactive) | GI50 [15]: > 100 µM (inactive) | GI50 [16]: > 100 µM (inactive) | GI50 [17]: > 100 µM (inactive) | GI50 [55]: > 100 µM (inactive) | GI50 [18]: > 100 µM (inactive) | GI50 [19]: > 100 µM (inactive) | GI50 [20]: > 100 µM (inactive) | GI50 [21]: > 100 µM (inactive) | GI50 [22]: > 100 µM (inactive) | GI50 [23]: > 100 µM (inactive) | GI50 [24]: 84.1 µM (inactive) | GI50 [25]: > 100 µM (inactive) | GI50 [26]: > 100 µM (inactive) | GI50 [27]: > 100 µM (inactive) | GI50 [29]: 35.2 µM (inactive) | GI50 [30]: 33.8 µM (inactive) | GI50 [31]: 4.19 µM (inactive) | GI50 [32]: > 100 µM (inactive) | GI50 [33]: > 100 µM (inactive) | GI50 [34]: > 100 µM (inactive) | GI50 [35]: > 100 µM (inactive) | GI50 [36]: > 100 µM (inactive) | GI50 [37]: > 100 µM (inactive) | GI50 [38]: > 100 µM | GI50 [39]: > 100 µM (inactive) | GI50 [40]: > 100 µM (inactive) | GI50 [41]: > 100 µM (inactive) | GI50 [42]: > 100 µM (inactive) | GI50 [43]: > 100 µM (inactive) | GI50 [44]: > 100 µM (inactive) | GI50 [56]: > 100 µM (inactive) | GI50 [45]: > 100 µM (inactive) | GI50 [46]: > 100 µM (inactive) | GI50 [47]: > 100 µM (inactive) | GI50 [48]: > 100 µM (inactive) | GI50 [49]: > 100 µM (inactive) | GI50 [50]: > 100 µM (inactive) | GI50 [51]: > 100 µM (inactive) | GI50 [52]: > 100 µM (inactive)

Cc1c2oc3c(C)ccc(C(=O)NC4C(=O)NC(C(C)C)C(=O)N5CCCC5C(=O)N(C)CC(=O)N(C)C(Cc5ccccc5)C(=O)OC4C)c3nc-2c(C(=O)NC2C(=O)NC(C(C)C)C(=O)N3CCCC3C(=O)N(C)CC(=O)N(C)C(Cc3ccccc3)C(=O)OC2C)c(N)c1=O (stereo not given) (I: TVP[Sar][NMeF] / II: TVP[Sar][NMeF]; ester I:1-I:C, II:1-II:C; linker I:N-II:N via Actinocin(9to1); configuration not given here)
GI50 [57]: 0.00521 µM (active) | GI50 [54]: 0.00887 µM (active) | GI50 [4]: < 10 nM (active) and 6.17 nM (active) | GI50 [5]: < 10 nM (active) and 6 nM (active) | GI50 [8]: < 10 nM (active) and 9.31 nM (active) | GI50 [11]: 0.00957 µM (active) | GI50 [14]: 0.00989 µM (active) | GI50 [16]: < 10 nM (active) and 6.64 nM (active) | GI50 [58]: 0.0157 µM (active) | GI50 [17]: 0.0112 µM (active) | GI50 [55]: < 10 nM (active) and 5.64 nM (active) | GI50 [18]: 0.00807 µM (active) | GI50 [19]: < 10 nM (active) and 9.95 nM (active) | GI50 [22]: < 10 nM (active) and 12.5 nM (active) | GI50 [24]: < 10 nM (active) and 6.21 nM (active) | GI50 [25]: 0.0108 µM (active) | GI50 [27]: < 10 nM (active) and 10.8 nM (active) | GI50 [28]: < 10 nM (active) and 19.6 nM (active) | GI50 [31]: < 10 nM (active) and 7.24 nM (active) | GI50 [32]: 0.00504 µM (active) | GI50 [33]: < 10 nM (active) and 17.3 nM (active) | GI50 [34]: < 10 nM (active) and 6.65 nM (active) | GI50 [35]: < 10 nM (active) and 14.9 nM (active) | GI50 [39]: 0.0189 µM (active) | GI50 [41]: < 10 nM (active) and 12.9 nM (active) | GI50 [42]: < 10 nM (active) and 7.33 nM (active) | GI50 [56]: < 10 nM (active) and 7.11 nM (active) | GI50 [45]: < 10 nM (active) and 16.5 nM (active) | GI50 [46]: < 10 nM (active) and < 11.1 nM (active) | GI50 [48]: < 10 nM (active) and 9.29 nM (active) | GI50 [49]: 0.0127 µM (active) | GI50 [52]: < 10 nM (active) and 12.8 nM (active)

Cc1ccc(Nc2nc(O)c3[nH]cnc3n2)cc1CO
GI50 [1]: 14.8 µM (inactive) | GI50 [57]: 14 µM (inactive) | GI50 [53]: 16.5 µM (inactive) | GI50 [2]: 13 µM (inactive) | GI50 [54]: 15.5 µM (inactive) | GI50 [3]: 15.4 µM (inactive) | GI50 [4]: 17.5 µM (inactive) | GI50 [5]: 16.5 µM (inactive) | GI50 [6]: 16.6 µM (inactive) | GI50 [7]: 18 µM (inactive) | GI50 [9]: 12.1 µM (inactive) | GI50 [10]: 14.9 µM (inactive) | GI50 [11]: 16.6 µM (inactive) | GI50 [12]: 14 µM (inactive) | GI50 [13]: 3 µM (inactive) | GI50 [14]: 16 µM (inactive) | GI50 [16]: 17.1 µM (inactive) | GI50 [58]: 13.5 µM (inactive) | GI50 [17]: 12.8 µM (inactive) | GI50 [18]: 19.5 µM (inactive) | GI50 [19]: 10.7 µM (inactive) | GI50 [20]: 12.1 µM (inactive) | GI50 [21]: 8.87 µM (inactive) | GI50 [22]: 16.3 µM (inactive) | GI50 [23]: 16 µM (inactive) | GI50 [24]: 15.8 µM (inactive) | GI50 [26]: 12.2 µM (inactive) | GI50 [27]: 15.9 µM (inactive) | GI50 [28]: 12.8 µM (inactive) | GI50 [30]: 1.7 µM (inactive) | GI50 [31]: 21.2 µM (inactive) | GI50 [32]: 8.81 µM (inactive) | GI50 [33]: 15.2 µM (inactive) | GI50 [34]: 16.5 µM (inactive) | GI50 [35]: 8.79 µM (inactive) | GI50 [37]: 19.9 µM (inactive) | GI50 [38]: 15.6 µM | GI50 [59]: 16.1 µM (inactive) | GI50 [39]: 14.9 µM (inactive) | GI50 [40]: 11.6 µM (inactive) | GI50 [41]: 15.7 µM (inactive) | GI50 [42]: 17.8 µM (inactive) | GI50 [43]: 14.6 µM (inactive) | GI50 [44]: 15.7 µM (inactive) | GI50 [56]: 14.7 µM (inactive) | GI50 [45]: 17.1 µM (inactive) | GI50 [46]: 17.7 µM (inactive) | GI50 [47]: 18.9 µM (inactive) | GI50 [48]: 20.7 µM (inactive) | GI50 [49]: 16.6 µM (inactive) | GI50 [50]: 15.9 µM (inactive) | GI50 [51]: 15.5 µM (inactive) | GI50 [52]: 17.3 µM (inactive)

From ChEMBL document CHEMBL1201862, “PubChem BioAssay data set” (2004)
